In publication PMC7932537, “Quantitative profiling of protease specificity” (PLoS Computational Biology, 2021):
One block for each substance: values may come before it.

Assays:
MMP-9 [1] = test: Substrate phage display with NGS: relative probability (RP) of P3-P1' tetramer clusters; type: biochemical, human; conditions: for relative_probability: tetramer clusters unique to the MMP-9 selectome, MMP-9 RP
MMP-2 [2] = test: as above; type: biochemical, human; conditions: MMP2
MMP-2 [3] = target: T1, MMP-2 (Homo sapiens, UniProt P08253); test: K(obs) of individual phage substrates (set of 1369); type: biochemical; conditions: MMP2
T1 sequence (P08253 110-660): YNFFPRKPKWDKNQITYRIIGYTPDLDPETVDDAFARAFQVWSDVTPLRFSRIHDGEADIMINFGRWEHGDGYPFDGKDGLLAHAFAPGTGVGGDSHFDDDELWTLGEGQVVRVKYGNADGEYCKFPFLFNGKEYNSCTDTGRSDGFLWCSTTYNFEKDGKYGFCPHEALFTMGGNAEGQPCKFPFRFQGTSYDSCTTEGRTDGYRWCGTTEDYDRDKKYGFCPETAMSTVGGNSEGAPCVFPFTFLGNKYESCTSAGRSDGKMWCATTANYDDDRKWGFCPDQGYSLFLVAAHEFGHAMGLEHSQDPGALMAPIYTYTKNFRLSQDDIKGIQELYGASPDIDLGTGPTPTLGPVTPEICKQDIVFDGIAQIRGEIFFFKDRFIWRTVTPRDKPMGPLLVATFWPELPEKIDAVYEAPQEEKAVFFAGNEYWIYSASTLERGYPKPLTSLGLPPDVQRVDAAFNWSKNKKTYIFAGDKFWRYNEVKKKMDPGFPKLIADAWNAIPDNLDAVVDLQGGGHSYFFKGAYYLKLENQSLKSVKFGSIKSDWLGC

MMP-9 [4] = target: MMP-9 (Homo sapiens, UniProt P14780); test: as above; type: biochemical; conditions: MMP9
[5] = MMP9, RP of the P3-P1' tetramer matching the MS detected cleavage, RP above 4.7, substrate phage display with NGS
[6] = tetramer probability in MMP9 set / naive library, 200 nM protease, 2 h, 37°C
[7] = tetramer projected onto MMP-9 cleavage sites determined by Prudova et al. (2010)
[8] = RP according to MMP9, P3-P1' tetramer of unique physiologic MMP9 substrates from MEROPS
[9] = RP of the P3-P1' tetramer contained in the substrate
[10] = individual phage substrate of the set of 1369 peptides, cleavage position marked by '-'
[11] = individual phage substrate of the set of 1369 peptides, dash in the sequence marks the cleavage position
[12] = RP of the P3-P1' tetramer contained in the substrate (substrate phage display with NGS)
[13] = individual phage substrates, set of 1369 peptides, cleavage position marked by hyphen in sequence
[14] = individual phage substrates, set of 1369 peptides, hyphen in sequence marks cleavage position

Chain of MMP-9 (Homo sapiens, UniProt P14780) (P14780 94-707): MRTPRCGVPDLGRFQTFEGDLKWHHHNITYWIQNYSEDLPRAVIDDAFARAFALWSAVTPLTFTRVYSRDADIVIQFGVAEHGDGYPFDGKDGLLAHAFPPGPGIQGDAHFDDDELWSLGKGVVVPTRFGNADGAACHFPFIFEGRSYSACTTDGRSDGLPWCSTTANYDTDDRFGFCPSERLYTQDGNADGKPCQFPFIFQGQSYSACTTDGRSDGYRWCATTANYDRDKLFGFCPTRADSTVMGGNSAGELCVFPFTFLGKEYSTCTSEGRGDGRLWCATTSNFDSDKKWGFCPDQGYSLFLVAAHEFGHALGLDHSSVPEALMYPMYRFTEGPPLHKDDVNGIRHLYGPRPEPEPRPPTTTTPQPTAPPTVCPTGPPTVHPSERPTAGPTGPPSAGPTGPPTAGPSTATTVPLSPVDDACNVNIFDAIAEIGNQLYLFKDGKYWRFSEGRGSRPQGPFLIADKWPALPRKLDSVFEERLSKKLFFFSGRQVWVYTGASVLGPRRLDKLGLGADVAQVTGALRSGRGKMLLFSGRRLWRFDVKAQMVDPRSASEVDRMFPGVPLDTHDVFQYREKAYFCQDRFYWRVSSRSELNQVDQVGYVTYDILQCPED

Substance: PFKI
relative probability (RP) (MMP-9 [1]; [5]): 34.84

Substance: PYAI [P3-P1' tetramer cluster]
relative probability (RP) (MMP-9 [1]; [6]): 51.7522

Substance: PSGI [P3-P1' tetramer cluster]
relative probability (RP) (MMP-9 [1]; [7]): 45.03

Substance: IRYV
relative probability (RP) (MMP-9 [1]; [5]): 10.4

Substance: ITPL [P3-P1' tetramer cluster]
relative probability (RP) (MMP-9 [1]; [7]): 0.92

Substance: PRGI [P3-P1' tetramer cluster]
relative probability (RP) (MMP-9 [1]; [7]): 47.2

Substance: PDHL
relative probability (RP) (MMP-9 [1]; [5]): 13.06

Substance: PMAA
relative probability (RP) (MMP-9 [1]; [5]): 16.94

Substance: PVGV [P3-P1' tetramer cluster]
relative probability (RP) (MMP-9 [1]; [7]): 34.33

Substance: PWWI [P3-P1' tetramer cluster]
relative_probability (MMP-9 [1]): 43.44

Substance: PWAQ [P3-P1' tetramer cluster]
relative_probability (MMP-9 [1]): 41.83

Substance: PWMM [P3-P1' tetramer cluster]
relative_probability (MMP-9 [1]): 46.92

Substance: PWWM [P3-P1' tetramer cluster]
relative_probability (MMP-9 [1]): 45.99

Substance: VGSL [P3-P1' tetramer cluster]
relative probability (RP) (MMP-9 [1]; [7]): 7.47

Substance: PMWM [P3-P1' tetramer cluster]
relative probability (RP) (MMP-9 [1]; [6]): 52.3808

Substance: PRLV
relative probability (RP) (MMP-9 [1]; [5]): 7.12

Substance: PFSV [P3-P1' tetramer cluster]
relative probability (RP) (MMP-9 [1]; [7]): 31.92

Substance: PFAS
relative probability (RP) (MMP-9 [1]; [5]): 24.05

Substance: PVGI [P3-P1' tetramer cluster]
relative probability (RP) (MMP-9 [1]; [7]): 46.04

Substance: FFPF
relative probability (RP) (MMP-9 [1]; tetramer annotation of MMP-9 cleavage sites in physiologic substrates from MEROPS): 0.33

Substance: PKAS [P3-P1' tetramer cluster]
relative probability (RP) (MMP-9 [1]; [7]): 25.84

Substance: PFAV [P3-P1' tetramer cluster]
relative probability (RP) (MMP-9 [1]; [7]): 43.58

Substance: PWPH
relative probability (RP) (MMP-9 [1]; [5]): 15.08

Substance: TITG
Relative probability (RP) rank (MMP-9 [1]; [8]): 47886
relative probability (RP) (MMP-9 [1]; [8]): 0.16

Kobs (MMP-2 [3]; [10]): 10866.7 M⁻¹ s⁻¹
Kobs (MMP-9 [4]; [11]): 418.952 M⁻¹ s⁻¹
Substance: ARLGY-LTASG
relative probability (RP) (MMP-2 [2]; [9]): 24.8925

Kobs (MMP-2 [3]; [13]): 3438.54 M⁻¹ s⁻¹
Kobs (MMP-9 [4]; [14]): 5461.43 M⁻¹ s⁻¹
Substance: SGVFW-MRGTA
relative probability (RP) (MMP-2 [2]; [12]): 10.3215

Kobs (MMP-2 [3]; [10]): 12792.1 M⁻¹ s⁻¹
Kobs (MMP-9 [4]; [11]): 355.093 M⁻¹ s⁻¹
Substance: YPFGS-LTASG
relative probability (RP) (MMP-2 [2]; [9]): 21.9152

Kobs (MMP-2 [3]; [13]): 142.481 M⁻¹ s⁻¹
Kobs (MMP-9 [4]; [14]): 0 M⁻¹ s⁻¹
Substance: SLFLH-MTASG
relative probability (RP) (MMP-2 [2]; [12]): 0.2069

Kobs (MMP-2 [3]; [13]): 1660.66 M⁻¹ s⁻¹
Kobs (MMP-9 [4]; [14]): 0 M⁻¹ s⁻¹
Substance: TRLAH-VTASG
relative probability (RP) (MMP-2 [2]; [12]): 11.7405

Kobs (MMP-2 [3]; [10]): 4335.13 M⁻¹ s⁻¹
Kobs (MMP-9 [4]; [11]): 5090.5 M⁻¹ s⁻¹
Substance: KSPSL-YTASG
relative probability (RP) (MMP-2 [2]; [9]): 18.1013

Kobs (MMP-2 [3]; [10]): 7815.03 M⁻¹ s⁻¹
Kobs (MMP-9 [4]; [11]): 4335.13 M⁻¹ s⁻¹
Substance: ARVRH-LTASG
relative probability (RP) (MMP-2 [2]; [9]): 25.4239

Kobs (MMP-2 [3]; [10]): 4922.1 M⁻¹ s⁻¹
Kobs (MMP-9 [4]; [11]): 12792.1 M⁻¹ s⁻¹
Substance: GDPYS-LRTAS
relative probability (RP) (MMP-2 [2]; [9]): 30.7259

Kobs (MMP-2 [3]; [10]): 5667.28 M⁻¹ s⁻¹
Kobs (MMP-9 [4]; [11]): 231.616 M⁻¹ s⁻¹
Substance: GWPNA-FLTAS
relative probability (RP) (MMP-2 [2]; [9]): 16.8865

Kobs (MMP-2 [3]; [13]): 0 M⁻¹ s⁻¹
Kobs (MMP-9 [4]; [14]): 1373.05 M⁻¹ s⁻¹
Substance: SGPFR-LNWTA
relative probability (RP) (MMP-2 [2]; [12]): 16.3818

Kobs (MMP-2 [3]; [10]): 3850.82 M⁻¹ s⁻¹
Kobs (MMP-9 [4]; [11]): 12792.1 M⁻¹ s⁻¹
Substance: SGVRH-VRATA
relative probability (RP) (MMP-2 [2]; [9]): 9.5401

Kobs (MMP-2 [3]; [10]): 6688.74 M⁻¹ s⁻¹
Kobs (MMP-9 [4]; [11]): 912.511 M⁻¹ s⁻¹
Substance: HRLLS-LTASG
relative probability (RP) (MMP-2 [2]; [9]): 2.018

Kobs (MMP-2 [3]; [10]): 418.952 M⁻¹ s⁻¹
Kobs (MMP-9 [4]; [11]): 0 M⁻¹ s⁻¹
Substance: SVGLY-LTASG
relative probability (RP) (MMP-2 [2]; [9]): 0.07615
